The text below walks through data of patent US20050266997A1, “Flowering stimulant composition using nitrobenzene” (priority 2002, published 2005).

The structures appear in SMILES notation.

The test system of the experiment is agricultural and horticultural crops. The following applies: Nitrobenzene in a suitable formulation, used as spray or in granular form.

`O=[N+]([O-])c1ccccc1` [Nitrobenzene] showed an increasing flowers of 40 to 45%.
